Data on eight molecules can be found in PubChem BioAssay (NCI).

Several values for one entry are separate records, joined by “and”; a condition that tells them apart may be missing. Equal values may be shown once.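 Method: 48-hour compound exposure of cells in 96-well plates, five concentrations, linear interpolation of endpoints. GI50 is the concentration that inhibits growth by half. TGI marks complete inhibition of growth.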

Among the test systems are A549 NSCLC; CAKI-1 renal; IGROV1 ovarian; NCI-H460 lung; NCI/ADR-RES ovarian; OVCAR-8 ovarian; PC-3 prostate; SK-MEL-28 melanoma; SN12C renal; T-47D breast.
What all share (assay): NCI-60 cell line screen, 48 h

In the case of `COc1cc2c(c(OC)c1OC)-c1ccc(O)c(=O)cc1[C@@H](NC(C)=O)CC2`, the GI50 in the assay on A549 NSCLC was 10.1 µM; in the assay with CAKI-1 renal, 4.91 µM; with IGROV1 ovarian, 4.76 µM; in the assay on NCI-H460 lung it was 3.9 µM; in the assay on NCI/ADR-RES ovarian it was 4.6 µM; with OVCAR-8 ovarian it was 3.77 µM. The GI50 in the assay with PC-3 prostate is 15.1 µM; in the assay with SK-MEL-28 melanoma it was 7.48 µM; with SN12C renal it was 7.93 µM; in the assay with T-47D breast, 8.84 µM. Also, the TGI is 89.3 µM and > 100 µM with A549 NSCLC; > 100 µM and 37.5 µM in the assay on CAKI-1 renal; > 100 µM and 82.4 µM in the assay on IGROV1 ovarian; > 100 µM and 28.6 µM in the assay with NCI-H460 lung; > 100 µM and 36.2 µM with NCI/ADR-RES ovarian; > 100 µM and 35.7 µM in the assay with OVCAR-8 ovarian. Besides, the TGI in the assay with PC-3 prostate was over 100 µM; with SK-MEL-28 melanoma, over 100 µM; with SN12C renal, 88.2 µM and 35 µM; in the assay on T-47D breast, over 100 µM.

For `COc1cc2ncnc3c2cc1OCCCCCN(C)Cc1ccc(Br)cc1N3`, the GI50 is 6.23 µM and 1.9 µM in the assay on A549 NSCLC; 0.288 µM and 0.375 µM in the assay on CAKI-1 renal; 0.35 µM and 0.31 µM with IGROV1 ovarian; 3.44 µM and 1.27 µM in the assay with NCI-H460 lung; 3.34 µM and 2.04 µM in the assay on NCI/ADR-RES ovarian; 12 µM and 2.67 µM in the assay with OVCAR-8 ovarian. Also, the GI50 is 4.65 µM and 3.85 µM with PC-3 prostate; 6.68 µM and 7.54 µM in the assay on SK-MEL-28 melanoma; 5.45 µM and 1.32 µM with SN12C renal; 0.643 µM and 0.446 µM in the assay on T-47D breast. For the same molecule, the TGI is over 100 µM in the assay with A549 NSCLC; over 100 µM in the assay on CAKI-1 renal; 10.6 µM and 4.31 µM in the assay on IGROV1 ovarian; over 100 µM with NCI-H460 lung; over 100 µM in the assay on NCI/ADR-RES ovarian; over 100 µM in the assay on OVCAR-8 ovarian. In addition, the TGI with PC-3 prostate was over 100 µM; in the assay on SK-MEL-28 melanoma it was over 100 µM; with SN12C renal, over 100 µM; with T-47D breast, 85.4 µM and 9.5 µM.

Regarding `Cc1ccc2sc3ccc(N)cc3c(=O)c2c1`, the TGI in the assay on A549 NSCLC, in the assay on CAKI-1 renal, in the assay with IGROV1 ovarian, with NCI-H460 lung, with NCI/ADR-RES ovarian and in the assay on OVCAR-8 ovarian was over 100 µM throughout. Also, the TGI with PC-3 prostate is over 100 µM; in the assay with SK-MEL-28 melanoma it was over 100 µM; in the assay with SN12C renal it was over 100 µM; in the assay with T-47D breast it was 78.5 µM.

Regarding `O=C(O)c1cccc(/C=C/c2ccccc2)c1`, the TGI in the assay on A549 NSCLC, in the assay on CAKI-1 renal, with IGROV1 ovarian, in the assay with NCI-H460 lung, in the assay on NCI/ADR-RES ovarian and with OVCAR-8 ovarian was over 100 µM each time. Moreover, the TGI with PC-3 prostate, in the assay on SK-MEL-28 melanoma, with SN12C renal and with T-47D breast was over 100 µM in each case.

For `COC(=O)[C@H]1[C@H]2C[C@@H]3c4[nH]c5cc(OC)ccc5c4CCN3C[C@H]2C[C@@H](OC(=O)/C=C/c2cc(OC)c(OC)c(OC)c2)[C@@H]1OC`, the GI50 in the assay on A549 NSCLC is 8.89 µM; with CAKI-1 renal, 3.97 µM; with IGROV1 ovarian, 6.72 µM; with NCI-H460 lung, 4.82 µM; with NCI/ADR-RES ovarian it was 4.55 µM; in the assay on OVCAR-8 ovarian, 4.74 µM. The GI50 with PC-3 prostate is 6.91 µM; in the assay on SK-MEL-28 melanoma, 12.6 µM; in the assay with SN12C renal, 4.56 µM; in the assay with T-47D breast, 3.15 µM. In addition, the TGI in the assay on A549 NSCLC was over 100 µM; in the assay with CAKI-1 renal it was 26.8 µM; in the assay with IGROV1 ovarian, 34.6 µM; in the assay with NCI-H460 lung it was over 100 µM; in the assay on NCI/ADR-RES ovarian, 28.5 µM; with OVCAR-8 ovarian, 50.4 µM. The TGI in the assay on PC-3 prostate is over 100 µM; in the assay with SK-MEL-28 melanoma, 28 µM; in the assay on SN12C renal it was over 100 µM; with T-47D breast, 9.54 µM.

In the case of `NNS(=O)(=O)c1cc(C(=O)O)cc(C(=O)O)c1`, the TGI with A549 NSCLC, in the assay on CAKI-1 renal, in the assay on IGROV1 ovarian, with NCI-H460 lung, with NCI/ADR-RES ovarian and in the assay with OVCAR-8 ovarian was over 100 µM throughout. The TGI in the assay on PC-3 prostate, in the assay on SK-MEL-28 melanoma, in the assay on SN12C renal and in the assay on T-47D breast was over 100 µM in each case.

Regarding `Cc1cnc(Nc2ccc(OCCN3CCCC3)cc2)nc1Nc1cccc(S(=O)(=O)NC(C)(C)C)c1`, the GI50 was 0.335 µM and 1.36 µM in the assay with A549 NSCLC; 1.11 µM in the assay on CAKI-1 renal; 0.0833 µM and 0.558 µM in the assay with IGROV1 ovarian; 0.228 µM and 1.09 µM in the assay with NCI-H460 lung; 7.01 µM and > 7.11 µM with NCI/ADR-RES ovarian; 0.666 µM and 2.66 µM in the assay on OVCAR-8 ovarian. Further, the GI50 in the assay with PC-3 prostate is 0.383 µM and 1.55 µM; with SK-MEL-28 melanoma, 3.27 µM and > 7.8 µM; with SN12C renal, 0.128 µM and 0.98 µM; with T-47D breast it was 2.13 µM and 2.11 µM. In addition, the TGI with A549 NSCLC is 7.29 µM and 6 µM; with IGROV1 ovarian it was 1.75 µM and 4.49 µM; with NCI-H460 lung, 7.28 µM and > 10 µM; with NCI/ADR-RES ovarian, 26.6 µM and > 10 µM; in the assay on OVCAR-8 ovarian, 9.03 µM and > 10 µM; in the assay with PC-3 prostate, over 51 µM. Besides, the TGI with SK-MEL-28 melanoma was 17.5 µM and > 10 µM; with SN12C renal it was 9.51 µM and > 9.64 µM; in the assay on T-47D breast, 24.2 µM and > 10 µM.

Take `CSc1nsc(S/C=C\C(=O)c2ccc(C)cc2)n1`: the GI50 with A549 NSCLC is 35.1 µM; in the assay with CAKI-1 renal, 21.8 µM; in the assay on IGROV1 ovarian, 25.5 µM; with NCI-H460 lung it was 26.7 µM; in the assay with NCI/ADR-RES ovarian it was 25.8 µM; with OVCAR-8 ovarian, 22.5 µM. The GI50 in the assay with PC-3 prostate was 29 µM; with SK-MEL-28 melanoma, 13.4 µM; in the assay with SN12C renal, 18.3 µM; with T-47D breast it was 23 µM. Further, the TGI in the assay on A549 NSCLC was over 90.5 µM; in the assay on CAKI-1 renal it was 51.5 µM; in the assay with IGROV1 ovarian it was over 100 µM; with NCI-H460 lung, over 73.5 µM; in the assay with NCI/ADR-RES ovarian it was 67.7 µM; with OVCAR-8 ovarian it was 57.5 µM. For the same molecule, the TGI in the assay on PC-3 prostate was over 57.6 µM; with SK-MEL-28 melanoma, over 45.1 µM; in the assay on SN12C renal, 35.9 µM; with T-47D breast, over 62.2 µM.
